Laboratory results as given in patent US20240150325A1, “NOVEL COMPOUND AS PROTEIN KINASE INHIBITORS” (LG CHEM, LTD., priority 2021, published 2024).

Experiments:
RON = RON (Homo sapiens, UniProt Q04912); experiment: Evaluation of inhibitory activity to RON; type: biochemical
Description: (§1) Experimental Example 1. Evaluation of Inhibitory Activity to RON and MET

MET = MET (Homo sapiens, UniProt P08581); experiment: Evaluation of inhibitory activity to MET; type: biochemical
Description: as §1

Sequence of MET (P08581 25-1390): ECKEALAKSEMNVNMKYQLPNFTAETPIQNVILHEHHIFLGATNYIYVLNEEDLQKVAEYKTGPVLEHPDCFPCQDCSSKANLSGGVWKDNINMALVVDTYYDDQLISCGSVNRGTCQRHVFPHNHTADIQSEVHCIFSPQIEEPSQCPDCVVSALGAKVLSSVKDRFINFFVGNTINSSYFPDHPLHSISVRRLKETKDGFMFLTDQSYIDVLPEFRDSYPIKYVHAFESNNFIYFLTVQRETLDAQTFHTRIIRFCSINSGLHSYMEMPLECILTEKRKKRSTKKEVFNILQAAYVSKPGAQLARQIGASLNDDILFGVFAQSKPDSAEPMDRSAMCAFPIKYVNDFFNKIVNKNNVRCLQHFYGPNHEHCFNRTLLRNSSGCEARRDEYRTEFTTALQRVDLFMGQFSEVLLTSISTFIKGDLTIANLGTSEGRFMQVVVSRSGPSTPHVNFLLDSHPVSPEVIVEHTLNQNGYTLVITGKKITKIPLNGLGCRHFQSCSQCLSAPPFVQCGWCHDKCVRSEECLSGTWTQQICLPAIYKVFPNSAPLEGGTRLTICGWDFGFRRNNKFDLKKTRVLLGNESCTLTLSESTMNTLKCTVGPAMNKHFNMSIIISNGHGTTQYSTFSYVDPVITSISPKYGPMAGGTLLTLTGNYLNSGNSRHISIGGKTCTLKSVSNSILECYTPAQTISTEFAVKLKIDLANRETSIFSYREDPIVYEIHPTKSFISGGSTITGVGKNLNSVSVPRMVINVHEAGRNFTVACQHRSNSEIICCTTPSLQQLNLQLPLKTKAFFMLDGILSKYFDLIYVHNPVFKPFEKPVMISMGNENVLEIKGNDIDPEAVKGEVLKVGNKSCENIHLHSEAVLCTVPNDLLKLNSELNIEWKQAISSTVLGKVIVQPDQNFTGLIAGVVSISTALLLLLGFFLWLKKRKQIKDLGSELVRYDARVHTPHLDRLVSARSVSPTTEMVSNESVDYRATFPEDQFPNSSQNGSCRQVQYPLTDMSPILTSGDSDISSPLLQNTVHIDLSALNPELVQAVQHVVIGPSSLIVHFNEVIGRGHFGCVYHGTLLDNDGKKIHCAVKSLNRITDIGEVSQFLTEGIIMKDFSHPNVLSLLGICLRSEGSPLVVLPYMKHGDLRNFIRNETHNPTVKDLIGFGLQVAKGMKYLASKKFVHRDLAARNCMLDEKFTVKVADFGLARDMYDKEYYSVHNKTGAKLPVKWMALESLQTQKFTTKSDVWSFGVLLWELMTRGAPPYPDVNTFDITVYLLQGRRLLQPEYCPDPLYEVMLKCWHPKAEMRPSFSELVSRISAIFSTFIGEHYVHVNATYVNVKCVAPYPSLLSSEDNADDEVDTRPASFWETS
Sequence of RON (Q04912 25-1400): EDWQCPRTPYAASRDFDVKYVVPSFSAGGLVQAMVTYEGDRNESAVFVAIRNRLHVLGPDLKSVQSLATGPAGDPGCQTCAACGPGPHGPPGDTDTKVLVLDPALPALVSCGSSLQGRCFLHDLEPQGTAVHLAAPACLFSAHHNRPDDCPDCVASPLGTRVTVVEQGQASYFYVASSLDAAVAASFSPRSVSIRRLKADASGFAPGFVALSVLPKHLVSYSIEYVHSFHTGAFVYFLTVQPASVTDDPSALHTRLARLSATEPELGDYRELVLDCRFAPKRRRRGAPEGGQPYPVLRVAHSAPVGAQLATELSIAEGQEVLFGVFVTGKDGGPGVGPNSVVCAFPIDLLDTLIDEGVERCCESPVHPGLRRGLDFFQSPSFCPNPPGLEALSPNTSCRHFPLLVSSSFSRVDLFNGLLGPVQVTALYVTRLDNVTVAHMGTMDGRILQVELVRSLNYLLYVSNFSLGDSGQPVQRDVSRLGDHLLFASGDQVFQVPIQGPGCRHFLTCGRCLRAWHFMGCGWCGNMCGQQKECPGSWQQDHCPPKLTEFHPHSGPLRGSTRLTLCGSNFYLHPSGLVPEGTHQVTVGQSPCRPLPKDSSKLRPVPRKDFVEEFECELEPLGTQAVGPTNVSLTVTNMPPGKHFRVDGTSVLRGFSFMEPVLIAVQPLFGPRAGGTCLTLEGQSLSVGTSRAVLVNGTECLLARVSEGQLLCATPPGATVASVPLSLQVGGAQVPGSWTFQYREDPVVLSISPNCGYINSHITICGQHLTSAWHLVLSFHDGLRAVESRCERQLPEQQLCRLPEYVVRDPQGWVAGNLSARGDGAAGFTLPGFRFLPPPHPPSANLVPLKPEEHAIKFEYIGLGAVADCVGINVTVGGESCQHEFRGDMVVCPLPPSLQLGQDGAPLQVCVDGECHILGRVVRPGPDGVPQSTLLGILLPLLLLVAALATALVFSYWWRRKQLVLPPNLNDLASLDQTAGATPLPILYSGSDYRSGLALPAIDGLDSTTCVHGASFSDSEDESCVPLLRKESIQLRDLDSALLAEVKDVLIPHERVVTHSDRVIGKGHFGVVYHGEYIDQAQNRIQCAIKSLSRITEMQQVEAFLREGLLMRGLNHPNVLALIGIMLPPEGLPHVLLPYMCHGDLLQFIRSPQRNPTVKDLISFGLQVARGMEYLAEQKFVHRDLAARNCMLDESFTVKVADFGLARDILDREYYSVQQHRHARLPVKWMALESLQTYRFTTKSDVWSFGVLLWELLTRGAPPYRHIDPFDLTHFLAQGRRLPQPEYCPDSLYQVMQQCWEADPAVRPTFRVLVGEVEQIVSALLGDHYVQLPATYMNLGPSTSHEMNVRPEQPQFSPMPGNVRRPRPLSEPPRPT

Row | SMILES | IC50 (RON) [nM] | IC50 (MET) [nM]
1 | O=C(Nc1ccc(F)cc1)C1(C(=O)Nc2ccc(Oc3ccc(O)c(-c4ccncn4)c3)c(F)c2)CC1 [Example 56, N-(3-fluoro-4-(4-hydroxy-3-(pyrimidin-4-yl)phenoxy)phenyl)-N-(4-fluorophenyl)cyclopropan-1,1-dicarboxamide] | 3350 | 281
2 | Nc1nccc(-c2cc(-c3ccc(NC(=O)c4cc(C5CC5)cn(-c5ccc(F)cc5)c4=O)cc3F)ccc2O)n1 [Example 8] | 834 | 2090
